Reference: patent US20050148553A1, “Use of tigecycline, alone, or in combination with rifampin to treat osteomyelitis and/or septic arthritis” (priority 2003, published 2005)
≈ marks a conversion by molar mass, not a printed value.

Test system: methicillin-resistant S. aureus
Assay: microbe, parasite or virus in culture
Format: cell-based, Staphylococcus aureus
Details: Staphylococcus aureus, MRSA
Description: The minimum inhibitory concentrations (MIC) of tigecycline, vancomycin and rifampin were determined using an antibiotic two-fold tube-dilution method. The minimum bactericidal concentrations were also determined. The limits of sensitivity of this method were 25 μg/ml to 0.20 μg/ml.

Which results are given for `CN(C)c1cc(NC(=O)CNC(C)(C)C)c(O)c2c1C[C@H]1C[C@H]3[C@H](N(C)C)C(O)=C(C(N)=O)C(=O)[C@@]3(O)C(O)=C1C2=O` [Tigecycline]?
MBC (read-out: minimum bactericidal concentration (MBC)): 0.2 µg/mL (≈ 0.341 µM); MIC (read-out: minimum inhibitory concentration (MIC), MRSA study strain, inoculum 10^6 CFU/ml): < 0.2 µg/mL
